Experimental findings from publication PMC3260207, “Site-Directed Mutations and the Polymorphic Variant Ala160Thr in the Human Thromboxane Receptor Uncover a Structural Role for Transmembrane Helix 4” (PLoS ONE, 2012) are described below.

The term EC50 denotes the concentration at which the effect is half-maximal.

In test [1] the target is T1, TP A160T mutant (nsSNP variant) (Homo sapiens, UniProt P21731, A160T).
T1 construct: expressed in transfected cells; HEK293T (calcium assays)
T1 sequence (P21731 1-343 A160T): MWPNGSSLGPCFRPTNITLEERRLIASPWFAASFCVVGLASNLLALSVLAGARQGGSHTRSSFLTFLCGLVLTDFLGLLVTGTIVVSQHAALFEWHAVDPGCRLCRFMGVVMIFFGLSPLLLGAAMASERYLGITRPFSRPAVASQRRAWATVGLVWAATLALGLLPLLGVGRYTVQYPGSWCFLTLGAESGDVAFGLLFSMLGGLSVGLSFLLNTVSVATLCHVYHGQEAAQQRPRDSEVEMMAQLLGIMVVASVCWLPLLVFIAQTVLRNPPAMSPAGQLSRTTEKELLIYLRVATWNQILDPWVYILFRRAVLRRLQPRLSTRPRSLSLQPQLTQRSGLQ
The experiment in a line: Intracellular calcium mobilization (Fluo-4NW) in transfected HEK293T cells. Format: cell-based. To be noted: read-out: EC50 of agonist U46619 (calcium mobilized), transiently transfected HEK293T cells, mean ± S.E. How it is done:
(§1) Amino acid substitutions were introduced into the synthetic TPα gene carried by the expression vector pMT4 as described previously, [29]. DNA sequences of all the mutated genes were verified by automated DNA sequencing. To minimize variations in transfection efficiency, the total amount transfected DNA was kept constant in all cases at 1 µg of DNA per 7×10^5 cells. The wild type TP or mutant genes were expressed in COS-1 cells using a DEAE-dextran based transient transfection method, [29], and in HEK293T cells using lipofectamine 2000 (Invitrogen). Except unless specified, the membranes prepared from COS-1 cells were used for radioligand binding assays and immunoblots. For intracellular calcium determination assays and immunofluorescence imaging, HEK293T cells were used. For transient transfections of HEK293T cells using the plasmid pMT4, lipofectamine 2000 (Invitrogen) mediated transfection was used as described by the manufacturer. Membranes were prepared using Buffers A and B and as described previously, [29]. The protein concentration in the resuspended membrane pellet was determined using a modified DC protein assay kit from Bio-Rad Laboratories (Hercules, CA).
(§2) Changes in intracellular calcium were measured by using the fluorescent calcium sensitive dye Fluo-4NW (Invitrogen). After 6–8 hours of transient transfection of HEK293T cells using lipofectamine 2000, 100,000 viable cells were plated into each well of a 96-well tissue culture treated BD-falcon optilux plates. Cells mock transfected with vector pMT4 alone were used as a negative control. Following 24 hours of incubation at 37°C, the media was removed and cells were incubated with the dye Fluo-4NW (Invitrogen) containing 77 µg/ml of probenecid for 1 hour, as recommended by the manufacturer. […] Dose–response curves were generated and EC50 values calculated by nonlinear regression analysis using PRISM software version 5.0 (GraphPad Software Inc, San Diego, CA) after subtracting the responses of mock-transfected cells stimulated with same concentrations of agonists.
On the technique in general: Calcium assays in cells follow changes in intracellular calcium, usually with a dye or a luminescent sensor.

A further test deals with T2, TP G164V mutant (Homo sapiens, UniProt P21731, G164V).
T2 construct: expressed in transfected cells; HEK293T (calcium assays)
T2 sequence (P21731 1-343 G164V): T1 sequence (P21731 1-343 A160T) with T160A, G164V
The description is as above. Format: cell-based. To be noted: read-out: EC50 of agonist U46619 (calcium mobilized), transiently transfected HEK293T cells, mean ± S.E. How it is done:
as §1, §2

Positions count from the first letter of the chain named.

Consider `CCCCC[C@H](O)/C=C/[C@@H]1[C@@H](C/C=C\CCCC(=O)O)[C@H]2CO[C@@H]1C2` [U46619], for which the EC50 in test [1] is 5.5 ± 0.3 nM; at TP G164V mutant it was 38 ± 2.1 nM.
